In paper PMC4890114, “Intracellular quantitative detection of human thymidylate synthase engagement with an unconventional inhibitor using tetracysteine-diarsenical-probe technology” (Scientific Reports, 2016):

What was measured:
[1] = molecular target: T1, human thymidylate synthase (hTS) (Homo sapiens, UniProt P04818); experiment: Kinetic characterization of the hTS enzyme; assay type: biochemical; conditions: mTHF 3.50-69.20 μM; enzyme 0.30 μM, dUMP 120 μM; 340 nm; triplicate
T1 construct: inferred from the nickel-resin purification and the pQE80L vector; made in house; host or cells: E. coli DH5α
Experimental: The enzyme reaction was started when dUMP was added to the reaction mixture. […] For each single determination assay, the experimental data were analysed in triplicate with a p-value < 0.005 representing statistical significance.

[2] = test system: TC-hTS-transfected HEK293T cells; experiment: FlAsH-EDT2 staining and confocal imaging of transfected HEK293T cells; assay type: cell-based, human; conditions: HEK293T transfected with empty vector, hTS or TC-hTS; 0.5 μM FlAsH, 30 min; confocal microscopy
Experimental: HEK293T cells (3 × 10^4) were plated into 6-well microslides pre-coated with 0.01% (w/v) poly-L lysine and transfected the following day with 2.5 μg of DNA using Lipofectamine™ LTX Transfection Reagent. After 24 h, cells were labelled for 30 min with 12.5 μM 1,2-ethanedithiol (EDT) and 0.5 μM FlAsH (Life Technologies) in HBSS and then washed twice for 15 min in 150 μM 2,3-dimercaptopropanol (BAL) in HBSS. Cells were fixed with 4% (w/v) paraformaldehyde for 15 min at RT and then imaged using an inverted Leica TCS SP2 confocal microscope interfaced with an Ar Laser (488 nm/20 mW), equipped with AOBS and operated at a magnification of 63x (HCX PL APO 63x/1.40 - oil - Lambda blue correction). Images were processed using LCS Lite (Leica Microsystems, Heidelberg).

[3] = test system: TC-hTS in HEK293T cell lysates; experiment: FlAsH emission in cell lysates; assay type: binding, human; conditions: excitation 480 nm
Experimental: HEK293T cells (10 × 10^6) were plated into 150-mm dishes (6 dishes were used for each condition) and transfected the following day with 25 μg of pcDNA-TS or pcDNA-TS-TC using Lipofectamine™ LTX Transfection Reagent; cells were collected 48 h post-transfection in 15-ml tubes and washed twice with 4 °C cold PBS for spectrofluorometric analysis. […]
UV-visible absorption measurements were performed with a Cary 100 Varian spectrophotometer. Fluorescence measurements were carried out with a Horiba Fluoromax-3 spectrofluorometer. […] The fluorescein, hTS dimer and LR-h concentrations were determined spectrophotometrically using the following extinction coefficients: εmax (fluorescein) = 79000 M^−1 cm^−1, ε280 (hTS) = 89000 M^−1 cm^−1, ε280 (fluorescein) = 30000 M^−1 cm^−1,[28] and ε404 (LR-h) = 35000 M^−1 cm^−1, determined ad hoc for this work. The h (420 nm) and F (522 nm) emissions were measured by excitation at 370 or 380 nm. The F emission values were analysed according to the Scatchard method as functions of the LR-h concentration. The amount measured before LR-h addition and due to the direct excitation of F at 370 nm was subtracted from the intensity measured at 522 nm. […] Similar experiments were performed in 800 μl of the lysate of 60 × 10^6 HEK cells to which hTS-F was added to a concentration of 2.5 μM (determined spectrophotometrically). […]

[4] = complexes of FlAsH with some dodecapeptides including CCPGCC; 'as low as'; read-out: apparent dissociation constant; cited from earlier work
Description: According to a strategy devised by Tsien and co-workers, some fluorogenic biarsenicals can covalently bind proteins that contain a tetracysteine motif, CCXXCC, thereby strongly enhancing their emission quantum yield and making such tetracysteine-containing proteins observable within cells. The CCPGCC sequence features a hairpin conformation that optimizes the covalent binding of each As atom of the probe to the S atoms of two cysteine units. Apparent dissociation constants as low as 4 pM have been measured for complexes formed between the fluorescein diarsenical probe FlAsH and some do ...

Q: With `Nc1nc2c(c(=O)[nH]1)N1CN(c3ccc(C(=O)N[C@@H](CCC(=O)O)C(=O)O)cc3)CC1CN2` (some centres unmarked) [mTHF, 5,10-methylenetetrahydrofolate] as the compound, how does the Km [1] read?
A: 5.87 µM

Q: What does the source list for `O=C(O)c1ccccc1-c1c2ccc(=O)c([As]3SCCS3)c-2oc2c([As]3SCCS3)c(O)ccc12` [FlAsH]?
A: green fluorescence enhancement [2]: green fluorescence enhancement only in TC-hTS-transfected cells; FlAsH emission, TC-hTS cell lysate versus hTS cell lysate ([3]; after fourth addition, total FlAsH 0.6 μM): 2.5 times; duration of FlAsH emission increase after addition of the probe ([3]; printed for the hTS-expressing cells): approximately forty; Kd [4]: ≥ 4 pM
